The values that follow come from patent publication US12630498B2 (Genzyme Corporation, priority 2019, dated 2026).

Test [1] deals with T1, human Cystic Fibrosis Transmembrane Conductance Regulator (CFTR) harboring the ΔF508 mutation (Homo sapiens, UniProt P13569, DEL508-508).
T1 construct: expressed in transfected cells; host or cells: H441 carcinoma line (G418-selected)
The experiment in a line: H441 cell ΔF508-CFTR-HRP cell surface assay (Emax and EC50). It counts as cell-based. The following applies: for Emax: NCI-H441, NA = Not active. Put shortly: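 H441 and 41o- bronchial epithelial cells expressing ΔF508-CFTR with an extracellular-loop-4 HRP tag were treated with a 15-point compound series (24.5–0.001 μM) for two nights, H441 at 27° C, 41o- at 37° C with 0.0005 mg/ml doxycycline. Surface HRP luminescence read; % of maximum VX809 signal and EC50 derived.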

The target in test [2] is T2, CFTR-mediated transepithelial chloride transport in primary human bronchial epithelial cells from a ΔF508 homozygous CF donor (Homo sapiens, UniProt P13569, DEL508-508).
T2 construct: Primary human bronchial epithelial cells from a ΔF508 homozygous CF donor; host or cells: primary CF-HBE cells, ΔF508 homozygous donor
Kind of test: TECC24 recording of CFTR-mediated transepithelial chloride transport in CF-HBE cells (AUC fold over DMSO). It counts as cell-based. The following applies: test agent 10 μM, 48 hours incubation, AUC of forskolin-stimulated IEQ relative to DMSO. Put shortly:
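Equivalent Cl⁻ current was derived from transepithelial voltage and resistance, and its AUC from forskolin (10 μM) to CFTRinh-172 (20 μM) was divided by the DMSO AUC. Benzamil 10 μM blocked ENaC. Cells were ΔF508-homozygous primary bronchial epithelia pretreated 48 h at 36.5 °C in IL-13 medium.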

T2 sequence (P13569 with tags, fused parts or gaps DEL508-508): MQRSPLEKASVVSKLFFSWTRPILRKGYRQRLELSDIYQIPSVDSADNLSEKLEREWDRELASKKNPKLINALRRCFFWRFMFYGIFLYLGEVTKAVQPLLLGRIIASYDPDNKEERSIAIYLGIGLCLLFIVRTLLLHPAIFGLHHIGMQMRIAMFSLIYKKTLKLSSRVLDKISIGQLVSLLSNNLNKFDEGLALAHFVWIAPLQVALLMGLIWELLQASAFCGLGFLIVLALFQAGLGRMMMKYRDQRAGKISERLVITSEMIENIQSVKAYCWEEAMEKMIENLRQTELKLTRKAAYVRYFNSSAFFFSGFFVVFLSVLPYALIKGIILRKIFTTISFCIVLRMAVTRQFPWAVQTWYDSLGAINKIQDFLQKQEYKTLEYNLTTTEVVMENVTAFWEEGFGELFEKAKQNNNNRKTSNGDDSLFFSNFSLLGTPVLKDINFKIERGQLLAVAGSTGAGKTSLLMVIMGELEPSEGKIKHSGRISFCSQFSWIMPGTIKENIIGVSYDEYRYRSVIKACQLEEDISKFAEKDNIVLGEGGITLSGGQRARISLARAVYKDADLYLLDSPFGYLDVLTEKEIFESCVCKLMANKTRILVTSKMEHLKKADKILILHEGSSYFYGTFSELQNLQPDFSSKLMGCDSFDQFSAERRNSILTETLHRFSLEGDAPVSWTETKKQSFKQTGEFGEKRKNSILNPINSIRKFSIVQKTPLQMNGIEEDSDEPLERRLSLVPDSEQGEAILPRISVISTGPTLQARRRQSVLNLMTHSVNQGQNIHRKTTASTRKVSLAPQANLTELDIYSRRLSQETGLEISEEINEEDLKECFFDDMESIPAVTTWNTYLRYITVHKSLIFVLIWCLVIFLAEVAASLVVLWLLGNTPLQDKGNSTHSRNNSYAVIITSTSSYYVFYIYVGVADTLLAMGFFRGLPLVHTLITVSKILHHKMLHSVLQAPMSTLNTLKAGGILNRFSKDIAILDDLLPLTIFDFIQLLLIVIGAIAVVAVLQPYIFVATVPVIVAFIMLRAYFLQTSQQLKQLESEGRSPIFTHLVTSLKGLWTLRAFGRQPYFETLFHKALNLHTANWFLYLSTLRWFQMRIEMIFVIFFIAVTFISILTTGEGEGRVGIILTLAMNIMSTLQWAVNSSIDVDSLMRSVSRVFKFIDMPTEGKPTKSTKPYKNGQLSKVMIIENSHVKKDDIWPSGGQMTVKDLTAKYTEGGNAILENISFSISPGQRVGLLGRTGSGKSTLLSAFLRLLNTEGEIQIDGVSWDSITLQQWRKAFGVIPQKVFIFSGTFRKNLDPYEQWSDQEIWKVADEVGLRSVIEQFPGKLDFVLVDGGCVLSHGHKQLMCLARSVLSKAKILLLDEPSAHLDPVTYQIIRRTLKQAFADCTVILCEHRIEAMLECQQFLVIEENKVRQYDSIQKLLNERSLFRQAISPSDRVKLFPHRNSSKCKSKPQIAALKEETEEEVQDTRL
T1 sequence (P13569 with tags, fused parts or gaps DEL508-508): as above

In test [1], `CCC(C)(C)[C@H](NC(=O)c1ccc2ccc(Cl)cc2c1OCc1ccc(C(F)(F)F)cc1)C(=O)O` [Example 283, (S)-2-(7-chloro-1-((4-(trifluoromethyl)benzyl)oxy)-2-naphthamido)-3,3-dimethylpentanoic Acid] showed an EC50 of 200 nM and an Emax of 313%. Besides, in test [2], the “TECC24 AUC fold over DMSO @10 μM” value is recorded as “A (“A” refers to AUC @10 uM >6)”.
For `Cc1ccc2ccc(C(=O)N[C@@H](C(=O)O)C(C)(C)C)c(OCc3ccc(C(F)(F)F)cc3)c2c1` [Example 284, (R)-3,3-dimethyl-2-(7-methyl-1-((4-(trifluoromethyl)benzyl)oxy)-2-naphthamido) butanoic Acid] the same measures were 500 nM, 173% and “C (“C” refers to AUC @10 uM <4)”.
With `CC(C)(C)[C@@H](NC(=O)c1ccc2ccc(Cl)cc2c1OCc1ccc(OC(F)(F)F)cc1)C(=O)O` [Example 285, (R)-2-(7-chloro-1-((4-(trifluoromethoxy)benzyl)oxy)-2-naphthamido)-3,3-dimethylbutanoic Acid], in test [1], a half-maximal response (EC50) required 800 nM and the Emax was determined as 99.1%. For the same compound, the “TECC24 AUC fold over DMSO @10 μM” value in test [2] is reported as “C (“C” refers to AUC @10 uM <4)”.
For `CC(C)(C)[C@H](NC(=O)c1ccc2ccc(Cl)cc2c1OCc1ccc(C(F)(F)F)cc1)C(=O)O` [Example 286, (S)-2-(7-chloro-1-((4-(trifluoromethyl)benzyl)oxy)-2-naphthamido)-3,3-dimethylbutanoic Acid] the same measures were 100 nM, 353% and “A (“A” refers to AUC @10 uM >6)”.
In test [1], `CC(C)(C)[C@@H](NC(=O)c1ccc2ccc(C(F)(F)F)cc2c1OCc1ccc(OC(F)(F)F)cc1)C(=O)O` [Example 287, (R)-3,3-dimethyl-2-(1-((4-(trifluoromethoxy)benzyl)oxy)-7-(trifluoromethyl)-2-naphthamido)butanoic Acid] yielded an EC50 of 300 nM and an Emax of 57.1%. Moreover, the “TECC24 AUC fold over DMSO @10 μM” value in test [2] was “C (“C” refers to AUC @10 uM <4)”.
For `CCC(C)(C)[C@H](NC(=O)c1ccc2ccc(C)cc2c1OCc1ccc(C(F)(F)F)cc1)C(=O)O` [Example 288, (S)-3,3-dimethyl-2-(7-methyl-1-((4-(trifluoromethyl)benzyl)oxy)-2-naphthamido)pentanoic Acid] the same measures were 100 nM, 404% and “A (“A” refers to AUC @10 uM >6)”.
In test [1], `CCCC(C)(CC)[C@H](NC(=O)c1ccc2ccc(F)cc2c1OCc1ccc(C(F)(F)F)cc1)C(=O)O` (stereo partly drawn) [Example 291, (2S)-3-ethyl-2-(7-fluoro-1-((4-(trifluoromethyl)benzyl)oxy)-2-naphthamido)-3-methylhexanoic Acid] registered an EC50 of 400 nM and an Emax of 260%. Further, the “TECC24 AUC fold over DMSO @10 μM” value in test [2] is on record as “A (“A” refers to AUC @10 uM >6)”.
On the same counts, the results for `CCC(C)(C)[C@H](NC(=O)c1ccc2ccc(C)cc2c1OCCCC(C)C)C(=O)O` [Example 294, 3,3-Dimethyl-2-{[7-methyl-1-(4-methyl-pentyloxy)-naphthalene-2-carbonyl]-amino}-pentanoic Acid] are 1000 nM, 281% and “A (“A” refers to AUC @10 uM >6)”.
On to `CCC(C)(C)[C@H](NC(=O)c1ccc2ccc(C(F)(F)F)cc2c1OCc1ccc(C(F)(F)F)cc1)C(=O)O` [Example 295, (S)-3,3-dimethyl-2-(7-(trifluoromethyl)-1-((4-(trifluoromethyl)benzyl)oxy)-2-naphthamido)pentanoic Acid], for which, in test [1], it took 100 nM to reach a half-maximal effect (EC50) and the maximum response (Emax) worked out at 229%. Further, the “TECC24 AUC fold over DMSO @10 μM” value in test [2] is reported as “A (“A” refers to AUC @10 uM >6)”.
For `CCC(C)(C)[C@H](NC(=O)c1ccc2ccc(C(F)(F)F)cc2c1OCc1ccc(OC(F)(F)F)cc1)C(=O)O` [Example 296, (S)-3,3-dimethyl-2-(1-((4-(trifluoromethoxy)benzyl)oxy)-7-(trifluoromethyl)-2-naphthamido)pentanoic Acid] the same measures were 200 nM, 186% and “A (“A” refers to AUC @10 uM >6)”.
For `CC1([C@H](NC(=O)c2ccc3ccc(C(F)(F)F)cc3c2OCc2ccc(OC(F)(F)F)cc2)C(=O)O)CC1` [Example 297, (S)-2-(1-methylcyclopropyl)-2-(1-((4-(trifluoromethoxy)benzyl)oxy)-7-(trifluoromethyl)-2-naphthamido)acetic Acid] the same measures were 500 nM, 137% and “A (“A” refers to AUC @10 uM >6)”.
For `CC1([C@H](NC(=O)c2ccc3ccc(C(F)(F)F)cc3c2OCc2ccc(C(F)(F)F)cc2)C(=O)O)CCC1` [Example 299, (S)-2-(1-methylcyclobutyl)-2-(7-(trifluoromethyl)-1-((4-(trifluoromethyl)benzyl)oxy)-2-naphthamido)acetic Acid] the same measures were 200 nM, 227% and “A (“A” refers to AUC @10 uM >6)”.
With `CC1([C@H](NC(=O)c2ccc3ccc(Cl)cc3c2OCc2ccc(C(F)(F)F)cc2)C(=O)O)CCC1` [Example 300, (S)-2-(7-chloro-1-((4-(trifluoromethyl)benzyl)oxy)-2-naphthamido)-2-(1-methylcyclobutyl)acetic Acid], in test [1], the midpoint of the response, the EC50, lay at 200 nM and the Emax was 232%. Also, the “TECC24 AUC fold over DMSO @10 μM” value in test [2] is “A (“A” refers to AUC @10 uM >6)”.
For `CC1([C@H](NC(=O)c2ccc3ccc(C(F)(F)F)cc3c2OCc2ccc(C(F)(F)F)cc2)C(=O)O)CCCC1` [Example 301, (S)-2-(1-methylcyclopentyl)-2-(7-(trifluoromethyl)-1-((4-(trifluoromethyl)benzyl)oxy)-2-naphthamido)acetic Acid] the same measures were 100 nM, 217% and “A (“A” refers to AUC @10 uM >6)”.
On the same counts, the results for `CC1([C@H](NC(=O)c2ccc3ccc(Cl)cc3c2OCc2ccc(C(F)(F)F)cc2)C(=O)O)CCCC1` [Example 302, (S)-2-(7-chloro-1-((4-(trifluoromethyl)benzyl)oxy)-2-naphthamido)-2-(1-methylcyclopentyl)acetic Acid] are 100 nM, 248% and “A (“A” refers to AUC @10 uM >6)”.
In test [1], `CC1([C@H](NC(=O)c2ccc3c(F)cccc3c2OCc2ccc(C(F)(F)F)cc2)C(=O)O)CCCC1` [Example 303, (S)-2-(5-fluoro-1-((4-(trifluoromethyl)benzyl)oxy)-2-naphthamido)-2-(1-methylcyclopentyl)acetic Acid] displayed an EC50 of 700 nM and an Emax of 174%. The “TECC24 AUC fold over DMSO @10 μM” value in test [2] is “B (“B” refers to AUC @10 uM between 4-6)”.
For `CCCC(C)(C)[C@H](NC(=O)c1ccc2ccc(C(F)(F)F)cc2c1OCc1ccc(C(F)(F)F)cc1)C(=O)O` [Example 304, (S)-3,3-dimethyl-2-(7-(trifluoromethyl)-1-((4-(trifluoromethyl)benzyl)oxy)-2-naphthamido)hexanoic Acid] the same measures were 100 nM, 249% and “A (“A” refers to AUC @10 uM >6)”.
For `CCCC(C)(C)[C@H](NC(=O)c1ccc2ccc(Cl)cc2c1OCc1ccc(C(F)(F)F)cc1)C(=O)O` [Example 306, (S)-2-(7-chloro-1-((4-(trifluoromethyl)benzyl)oxy)-2-naphthamido)-3,3-dimethylhexanoic Acid] the same measures were 100 nM, 417% and “A (“A” refers to AUC @10 uM >6)”.
On the same counts, the results for `CC(C)(C)[C@@H](NC(=O)c1ccc2ccc(C(F)(F)F)cc2c1OCc1ccc(C(F)(F)F)cc1)C(=O)O` [Example 307, (R)-3,3-dimethyl-2-(7-(trifluoromethyl)-1-((4-(trifluoromethyl)benzyl)oxy)-2-naphthamido)butanoic Acid] are 600 nM, 81.1% and “C (“C” refers to AUC @10 uM <4)”.
Regarding `COc1ccc2ccc(C(=O)N[C@H](C(=O)O)C(C)(C)C)c(OCc3ccc(C(F)(F)F)cc3)c2c1` [Example 308, (S)-2-(7-methoxy-1-((4-(trifluoromethyl)benzyl)oxy)-2-naphthamido)-3,3-dimethylbutanoic Acid], in test [1], the EC50 was 500 nM and the Emax is 408%. For the same compound, in test [2], the “TECC24 AUC fold over DMSO @10 μM” value is “A (“A” refers to AUC @10 uM >6)”.
As for `CCC(C)(C)[C@H](NC(=O)c1ccc2ccc(OC)cc2c1OCc1ccc(C(F)(F)F)cc1)C(=O)O` [Example 309, (S)-2-(7-methoxy-1-((4-(trifluoromethyl)benzyl)oxy)-2-naphthamido)-3,3-dimethylpentanoic Acid], in test [1], it took 300 nM to reach a half-maximal effect (EC50) and the maximal effect (Emax) was determined as 349%. Moreover, the “TECC24 AUC fold over DMSO @10 μM” value in test [2] is recorded as “A (“A” refers to AUC @10 uM >6)”.

As usually defined, the EC50 is the concentration at which the effect is half-maximal. High values mean lower potency in that assay, low ones higher potency in that assay. As usually defined, the Emax is the greatest response seen or fitted, relative to the assay's reference.
